Measured values as given in patent publication US20200147039A1, “COMPOUNDS USEFUL IN INHIBITING HUMAN TREFOIL FACTOR 3” (NATIONAL UNIVERSITY OF SINGAPORE, priority 2017, published 2020).

The compounds below were run on MCF-7 (assay: AlamarBlue cell viability assay, MCF7). Conditions: Homo sapiens, MCF7, MCF-7, AlamarBlue cell viability (Table 8).
Format: cell-based, human
Text: (A) Inhibitory concentration 50% (IC50) values for compound 43 in the MC cell lines are tabulated, using an AlamarBlue™ cell viability assay as previously described in Pandey V et al., Breast Cancer Res. 2014; 16(5):429. (B) Measured dose-dependent manner effect of compound 43 on the viability of MC cells (left-side, TFF3-high and right, TFF3-low) using AlamarBlue™ viability assay as previously described (ibid). (C) Apoptotic cell death of mammary carcinoma cell lines measured after treatment with 10 μM compound 43 using flow cytometry analysis at 24 hour as described previously in Keerthy H K et al., PloS one. 2014; 9(9):e107118. Annexin V-FITC staining is indicated on the X-axis and PI staining on the Y-axis. […] Acquisition of Annexin V and PI data were represented as percentage (%) in each quadrant. Note: CM, conditioned media; MCF10A and MCF12A, non-transformed immortalized-mammary epithelial cell line. Points are mean of triplicate experiments; bars, ±SD. Statistical significance was assessed by using an unpaired two-tailed Student's t test (P<0.05 was considered as significant) using GraphPad Prism5. Columns are mean of triplicate experiments; bars, ±SD. **P<0.001, *P<0.05.
The human immortalized mammary epithelial cell lines, MCF10A, and MCF12A; and immortalized hepatocellular epithelial cell line, LO2 were obtained from the American Type Culture Collection (ATCC, Rockville, Md.) and were cultured as per ATCC propagation instructions. MC cell lines, MCF7, T47D, BT474, BT20, MDA-MB-361, MDA-MB-436, MDA-MB-468, and MDA-MB-231; endometrial carcinoma cell lines, Ishikawa, ECC1, RL95-2 and AN3; hepatocellular carcinoma cell lines, Hep3B, H2P, and H2M; colon carcinoma cell lines, DLD-1, and Caco-2; and prostate carcinoma cell lines, PC3, LNCaP, and DU145 were obtained from the American Type Culture Collection (ATCC, Rockville, Md.). Pancreatic carcinoma cell lines, AsPC-1 and BxPC-3; Lung carcinoma cell lines, HCC-827, NCI-H1975, HCC-4006, PC-14, and NCI-H1299; and Thyroid carcinoma cell lines HTH83, CAL62, T238, and OGK-M were obtained from Prof. H. Phillip Koeffler's laboratory at The Cancer Science Institute of Singapore, National University of Singapore (NUS). Gastric carcinoma cell lines, AGS, MKN-28, MKN-45, and A2-528 were obtained from Prof. Yoshiaki Ito's laboratory at The Cancer Science Institute of Singapore, NUS. All cell lines were cultured as per ATCC propagation instructions.
The above synthesised compounds were initially evaluated against a range of carcinoma cells using an AlamarBlue™ cell viability assay (using the protocol discussed above). The tested compounds were generally efficacious at reducing the viability of various carcinoma cells compared to vehicle (DMSO) treated cells. Table 8 provides selected IC50 data for certain of the compounds synthesised herein against MCF-7.
In table 9 IC50 values of compound 43 compound library in several cancer cell lines are tabulated, using an AlamarBlue® cell viability assay as previously described in Pandey V et al., Breast Cancer Res. 2014; 16(5):429. Statistical analysis was assessed by using GraphPad Prism5. Note: NV, no value.

SMILES | IC50
COc1ccc2c3c(c(=O)oc2c1)C(c1ccc(-c2ccncc2)cc1)C(C#N)=C(N)O3 (centres unmarked) [Compound 146] | 7.04 µM
COc1ccc2c3c(c(=O)oc2c1)C(c1ccc(-c2ccnc(F)c2C)cc1)C(C#N)=C(N)O3 (centres unmarked) [Compound 150] | 1.12 µM
Cc1cc(-c2ccc(C3C(C#N)=C(N)Oc4c3c(=O)oc3ccccc43)c(F)c2)cnc1Cl (centres unmarked) [Compound 132] | 1.21 µM
Cc1ccc(-c2ccc(C3C(C#N)=C(N)Oc4c3c(=O)oc3ccc(F)cc43)cc2)cn1 (centres unmarked) [Compound 152] | 77.6 µM
N#CC1=C(N)Oc2c(c(=O)oc3ccccc23)C1c1ccc(-c2ccc(Cl)cc2)cc1 (centres unmarked) [Compound 127] | 3.25 µM
COc1ccc(C2C(C#N)=C(N)Oc3c2c(=O)oc2ccccc32)cc1-c1ccc(Cl)c(C(F)(F)F)c1 (centres unmarked) [Compound 73] | 14.8 µM
Cc1ccccc1-c1ccc(C2C(C#N)=C(N)Oc3c2c(=O)oc2ccccc32)c(F)c1 (centres unmarked) [Compound 138] | 0.751 µM
N#CC1=C(N)Oc2c(c(=O)oc3ccccc23)C1c1ccc(-c2cn[nH]c2)cc1F (centres unmarked) [Compound 142] | 15.5 µM
Cc1ccccc1-c1ccc(C2C(C#N)=C(N)Oc3c2c(=O)oc2ccc(F)cc32)cc1 (centres unmarked) [Compound 162] | 164 µM
Cc1ccc(-c2ccc(C3C(C#N)=C(N)Oc4c3c(=O)oc3ccccc43)cc2)cn1 (centres unmarked) [Compound 124] | 43.8 µM
COc1ccc(C2C(C#N)=C(NC(=O)c3cccn3C)Oc3c2c(=O)oc2ccccc32)cc1-c1cnc(F)c(C)c1 (centres unmarked) [Compound 106] | 55 µM
COc1ccc(CC(=O)NC2=C(C#N)C(c3ccc(OC)c(-c4cnc(F)c(C)c4)c3)c3c(c4ccccc4oc3=O)O2)cc1OC (centres unmarked) [Compound 104] | 8.96 µM
N#CC1=C(N)Oc2c(c(=O)oc3ccccc23)C1c1ccc(-c2cccnc2)cc1 (centres unmarked) [Compound 31] | 5.21 µM
Cc1c(-c2ccc(C3C(C#N)=C(N)Oc4c3c(=O)oc3ccccc43)c(F)c2)ccnc1F (centres unmarked) [Compound 130] | 7.93 µM
COc1ccc(C2C(C#N)=C(N)Oc3c2c(=O)oc2ccccc32)cc1-c1ccccc1C (centres unmarked) [Compound 55] | 18.6 µM
COc1ccc2c3c(c(=O)oc2c1)C(c1ccc(-c2ccccc2C)cc1)C(C#N)=C(N)O3 (centres unmarked) [Compound 163] | 22.8 µM
Cc1cc(-c2ccc(C3C(C#N)=C(N)Oc4c3c(=O)oc3ccc(F)cc43)c(F)c2)cnc1Cl (centres unmarked) [Compound 170] | 27.3 µM
Cc1cc(-c2ccc(C3C(C#N)=C(NS(=O)(=O)c4ccccc4)Oc4c3c(=O)oc3ccccc43)cc2)cnc1F (centres unmarked) [Compound 107] | 19.5 µM
N#CC1=C(N)Oc2c(c(=O)oc3ccc(F)cc23)C1c1ccc(-c2cccnc2)cc1 (centres unmarked) [Compound 144] | 6.85 µM

SMILES | IC50
Cc1c(-c2ccc(C3C(C#N)=C(N)Oc4c3c(=O)oc3ccc(F)cc43)cc2)ccnc1F (centres unmarked) [Compound 149] | 43.3 µM
N#CC1=C(N)Oc2c(c(=O)oc3ccccc23)C1c1ccc(-c2cccc3ccccc23)cc1F (centres unmarked) [Compound 141] | 1.7 µM
COc1ccc(C2C(C#N)=C(N)Oc3c2c(=O)oc2ccccc32)cc1-c1ccccc1 (centres unmarked) [Compound 49] | 28.2 µM
N#CC1=C(N)Oc2c(c(=O)oc3ccccc23)C1c1ccc(-c2ccc(C(F)(F)F)cc2)cc1F (centres unmarked) [Compound 134] | 1.84 µM
N#CC1=C(N)Oc2c(c(=O)oc3ccc(F)cc23)C1c1ccc(-c2cccc3ccccc23)cc1 (centres unmarked) [Compound 156] | 24.8 µM
COc1ccc2c3c(c(=O)oc2c1)C(c1ccc(-c2cnc(Cl)c(C)c2)cc1)C(C#N)=C(N)O3 (centres unmarked) [Compound 148] | 7.38 µM
N#CC1=C(N)Oc2c(c(=O)oc3ccccc23)C1c1ccc(-c2cncnc2)cc1F (centres unmarked) [Compound 139] | 4.23 µM
COc1ccc(C2C(C#N)=C(NS(=O)(=O)c3ccc([N+](=O)[O-])cc3)Oc3c2c(=O)oc2ccccc32)cc1-c1cnc(F)c(C)c1 (centres unmarked) [Compound 112] | 101 µM
Cc1cc(-c2ccc(C3C(C#N)=C(NS(=O)(=O)c4ccc([N+](=O)[O-])cc4)Oc4c3c(=O)oc3ccccc43)cc2)cnc1F (centres unmarked) [Compound 109] | 34.9 µM
COc1ccc(CC(=O)NC2=C(C#N)C(c3ccc(-c4cnc(F)c(C)c4)cc3)c3c(c4ccccc4oc3=O)O2)cc1OC (centres unmarked) [Compound 99] | 33.4 µM
Cc1cc(-c2ccc(C3C(c4nnn[nH]4)=C(N)Oc4c3c(=O)oc3ccccc43)cc2)cnc1F (centres unmarked) [Compound 113] | 33.1 µM
N#CC1=C(N)Oc2c(c(=O)oc3ccc(F)cc23)C1c1ccc(-c2cncnc2)cc1 (centres unmarked) [Compound 160] | 253 µM
COc1ccc(C2C(C#N)=C(N)Oc3c2c(=O)oc2ccccc32)cc1-c1cnc(F)c(C)c1 (centres unmarked) [Compound 91] | 11.8 µM
COc1cccc(-c2ccc(C3C(C#N)=C(N)Oc4c3c(=O)oc3ccc(F)cc43)cc2)c1 (centres unmarked) [Compound 164] | 27.3 µM
N#CC1=C(N)Oc2c(c(=O)oc3ccc(F)cc23)C1c1ccc(-c2cccnc2)cc1F (centres unmarked) [Compound 166] | 53.8 µM
COc1ccc(C2C(C#N)=C(NS(=O)(=O)c3ccccc3)Oc3c2c(=O)oc2ccccc32)cc1-c1cnc(F)c(C)c1 (centres unmarked) [Compound 110] | 67.4 µM
N#CC1=C(N)Oc2c(c(=O)oc3ccc(F)cc23)C1c1ccc(-c2ccncc2)cc1 (centres unmarked) [Compound 145] | 2.81 µM
N#CC1=C(N)Oc2c(c(=O)oc3ccccc23)C1c1ccc(-c2ccc(C(F)(F)F)cc2)cc1 (centres unmarked) [Compound 123] | 2.54 µM
N#CC1=C(N)Oc2c(c(=O)oc3ccc(F)cc23)C1c1ccc(-c2ccc(Cl)cc2)cc1 (centres unmarked) [Compound 155] | 36.1 µM

SMILES | IC50
Cc1cc(-c2ccc(C3C(C#N)=C(NC(=O)c4cc(Cl)ccc4Cl)Oc4c3c(=O)oc3ccccc43)cc2)cnc1F (centres unmarked) [Compound 100] | 177 µM
N#CC1=C(N)Oc2c(c(=O)oc3ccccc23)C1c1ccc(-c2cncnc2)cc1 (centres unmarked) [Compound 128] | 200 µM
COc1ccc(C2C(C#N)=C(N)Oc3c2c(=O)oc2ccccc32)cc1-c1cccnc1 (centres unmarked) [Compound 79] | 9.15 µM
COc1cccc(-c2ccc(C3C(C#N)=C(N)Oc4c3c(=O)oc3ccccc43)c(F)c2)c1 (centres unmarked) [Compound 140] | 1.07 µM
Cc1cc(-c2ccc(C3C(C#N)=C(NC(=O)Cc4cccc(Cl)c4)Oc4c3c(=O)oc3ccccc43)cc2)cnc1F (centres unmarked) [Compound 98] | 58.3 µM
Cc1ccc(-c2ccc(C3C(C#N)=C(N)Oc4c3c(=O)oc3ccccc43)c(F)c2)cn1 (centres unmarked) [Compound 135] | 3.26 µM
N#CC1=C(N)Oc2c(c(=O)oc3ccccc23)C1c1ccc(-c2cn[nH]c2)cc1 (centres unmarked) [Compound 129] | 263 µM
COc1ccc(S(=O)(=O)NC2=C(C#N)C(c3ccc(OC)c(-c4cnc(F)c(C)c4)c3)c3c(c4ccccc4oc3=O)O2)cc1 (centres unmarked) [Compound 111] | 39.3 µM
N#CC1=C(N)Oc2c(c(=O)oc3ccccc23)C1c1ccc(-c2cccnc2)cc1F (centres unmarked) [Compound 133] | 3.26 µM
COc1ccc2c3c(c(=O)oc2c1)C(c1ccc(-c2ccc(Cl)cc2)cc1)C(C#N)=C(N)O3 (centres unmarked) [Compound 154] | 5.74 µM
COc1ccc2c3c(c(=O)oc2c1)C(c1ccc(-c2ccc(C(F)(F)F)cc2)cc1)C(C#N)=C(N)O3 (centres unmarked) [Compound 151] | 2.45 µM
Cc1cc(-c2ccc(C3C(C#N)=C(N)Oc4c3c(=O)oc3ccc(F)cc43)cc2)cnc1Cl (centres unmarked) [Compound 147] | 0.526 µM
COc1ccc(C2C(C#N)=C(NC(=O)c3cc(Cl)ccc3Cl)Oc3c2c(=O)oc2ccccc32)cc1-c1cnc(F)c(C)c1 (centres unmarked) [Compound 105] | 23.7 µM
COc1ccc(C2C(C#N)=C(NC(=O)Cc3cccc(Cl)c3)Oc3c2c(=O)oc2ccccc32)cc1-c1cnc(F)c(C)c1 (centres unmarked) [Compound 103] | 40 µM
N#CC1=C(N)Oc2c(c(=O)oc3ccccc23)C1c1ccc(-c2cccc3ccccc23)cc1 (centres unmarked) [Compound 125] | 8.23 µM
COc1ccc2c3c(c(=O)oc2c1)C(c1ccc(-c2ccc(C)nc2)cc1)C(C#N)=C(N)O3 (centres unmarked) [Compound 153] | 4.9 µM
N#CC1=C(N)Oc2c(c(=O)oc3ccccc23)C1c1ccc(-c2ccncc2)cc1F (centres unmarked) [Compound 131] | 2.89 µM
N#CC1=C(N)Oc2c(c(=O)oc3ccccc23)C1c1ccc(-c2ccc(Cl)c(C(F)(F)F)c2)cc1 (centres unmarked) [Compound 25] | 18.4 µM
